Data on 20 compounds can be found in patent publication US8889704B2 (Array BioPharma Inc., priority 2011, dated 2014).

pIC50: −log10 of the molar value. Where a name gives a salt, the structure may show the parent alone.

What all share (format): biochemical
Test [1] deals with PIM-1 (Homo sapiens, UniProt P11309). Description: Enzyme PIM-1 Assay ([33P]ATP incorporation into PIM2tide, filter plate). The following applies: averaged IC50; 35 μM ATP, 7.5 μM PIM2tide, 0.25 nM PIM-1, 60 min at 22° C. The gist of the method:
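Ten-point, 3-fold dilution series (10 μM top, 2% DMSO final) tested for inhibition of 33P transfer from 35 μM ATP to 7.5 μM PIM2tide by 0.25 nM PIM-1. Reaction 60 min, 22 °C, pH 7.4 MOPS/MgCl2 buffer; phosphocellulose capture, scintillation counting, IC50 where fitted POC equals 50.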

For test [2], the target named is T1, GST-tagged recombinant full-length human Pim-2 (Homo sapiens, UniProt Q9P1W9).
T1 construct: GST-tagged recombinant full-length human Pim-2; GST
T1 sequence (Q9P1W9 whole entry): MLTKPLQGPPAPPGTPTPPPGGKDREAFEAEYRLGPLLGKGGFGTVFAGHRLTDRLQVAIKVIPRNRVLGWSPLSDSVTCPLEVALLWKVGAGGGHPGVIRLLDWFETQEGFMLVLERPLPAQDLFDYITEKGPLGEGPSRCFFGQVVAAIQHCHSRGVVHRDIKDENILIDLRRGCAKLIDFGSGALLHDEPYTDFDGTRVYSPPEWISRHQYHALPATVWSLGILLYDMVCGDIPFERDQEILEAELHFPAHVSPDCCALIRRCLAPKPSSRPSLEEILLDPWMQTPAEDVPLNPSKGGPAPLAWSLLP
Briefly: PIM-2 Assay (as Example A). The following applies: averaged IC50; 4 μM ATP, 1.0 μM PIM2tide, 1.5 nM Pim-2. The essentials:
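IC50 was derived by 4-parameter logistic fitting of percent-of-control data over a 10-point, 3-fold series (highest 10 μM, 2% DMSO). Reactions held 1.5 nM GST-Pim-2 (full-length, human), 4 μM [γ-33P]ATP and 1.0 μM PIM2tide for 60 min at 22 °C, pH 7.4; 33P-peptide captured on P81 filters.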

Test [3] concerns the target recombinant rat PIM-3 (Rattus norvegicus, UniProt O70444). Briefly: PIM-3 Assay (as Example A). The settings on record: averaged IC50; 30 μM ATP, 3.75 μM PIM2tide, 0.5 nM PIM-3. The gist of the method:
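33P incorporation from 30 μM [γ-33P]ATP into 3.75 μM PIM2tide by 0.5 nM rat PIM-3, 60 min at 22 °C in pH 7.4 MOPS buffer, read by P81 filter capture and scintillation counting. Compounds tested in 3-fold dilutions up to 10 μM final, 2% DMSO; percent-of-control data fitted by 4-parameter logistic for IC50.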

Sequence of PIM-1 (P11309 whole entry, species assumed): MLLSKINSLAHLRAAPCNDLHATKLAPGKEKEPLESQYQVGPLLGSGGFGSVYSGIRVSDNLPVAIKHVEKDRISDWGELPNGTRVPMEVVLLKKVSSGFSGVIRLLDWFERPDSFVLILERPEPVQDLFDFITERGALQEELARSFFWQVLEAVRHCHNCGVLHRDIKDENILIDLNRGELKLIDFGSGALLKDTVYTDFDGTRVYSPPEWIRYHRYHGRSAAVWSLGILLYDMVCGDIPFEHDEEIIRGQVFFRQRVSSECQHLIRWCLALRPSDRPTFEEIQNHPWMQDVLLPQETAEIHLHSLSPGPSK

Turning to `CN(C)C(=O)Cc1cccc2ccc(-c3nnc4ccc([C@@H](N5CC[C@H](N)C5)C(F)(F)F)cn34)nc12` [Example 234, 2-(2-(6-((R)-1-((S)-3-aminopyrrolidin-1-yl)-2,2,2-trifluoroethyl)-[1,2,4]triazolo[4,3-a]pyridin-3-yl)quinolin-8-yl)-N,N-dimethylacetamide dihydrochloride], the figures for the negative-log IC50 (pIC50) in test [1], in test [2] and in test [3] were 8.09, below 6.00 and 7.48, respectively.
For `CO[C@H](C)COc1ccc2ccc(-c3nnc4ccc([C@H](N5CC[C@](C)(N)C5)C(F)(F)F)cn34)nc2c1` [Example 305, (S)-3-methyl-1-((S)-2,2,2-trifluoro-1-(3-(7-((R)-2-methoxypropoxy)quinolin-2-yl)-[1,2,4]triazolo[4,3-a]pyridin-6-yl)ethyl)pyrrolidin-3-amine], the pIC50 (usually −log10 of the IC50, conventionally taken in molar units) is 9.02 in test [1], 7.15 in test [2] and 9.40 in test [3].
For `CC(C)(O)Cc1cc2nc(-c3nnc4ccc([C@H](N5CC[C@H](N)C5)C(F)(F)F)cn34)ccc2cc1F` [Example 237, dihydrochloride], the pIC50 was 8.54 in test [1], 6.68 in test [2] and 8.74 in test [3].
On to `C[C@]1(N)CCN([C@@H](c2ccc3nnc(-c4ccc5cccc(C6CC6)c5n4)n3c2)C(F)(F)F)C1` [Example 96, (S)-1-((S)-1-(3-(8-cyclopropylquinolin-2-yl)-[1,2,4]triazolo[4,3-a]pyridin-6-yl)-2,2,2-trifluoroethyl)-3-methylpyrrolidin-3-amine dihydrochloride], for which the pIC50 is 9.92 in test [1], 8.27 in test [2] and 9.30 in test [3].
In the same order, the values of `CC(C)(C)c1cccc2ccc(-c3nnc4ccc([C@@H](N5CC[C@H](NCCO)C5)C(F)(F)F)cn34)nc12` [Example 100, 2-((S)-1-((R)-1-(3-(8-tert-butylquinolin-2-yl)-[1,2,4]triazolo[4,3-a]pyridin-6-yl)-2,2,2-trifluoroethyl)pyrrolidin-3-ylamino)ethanol dihydrochloride] are 10.00, 8.19 and 8.96.
As to `COc1cccc2ccc(-c3nnc4ccc([C@@H](N5C[C@@H](N)[C@@H](O)C5)C(F)(F)F)cn34)nc12` [Example 137, (3S,4R)-4-amino-1-((R)-2,2,2-trifluoro-1-(3-(8-methoxyquinolin-2-yl)-[1,2,4]triazolo[4,3-a]pyridin-6-yl)ethyl)pyrrolidin-3-ol dihydrochloride], the negative-log IC50 (pIC50) was 8.46 in test [1], below 6.00 in test [2] and 7.47 in test [3].
On to `N[C@H]1CCN([C@H](c2ccc3nnc(-c4ccc5ccc(C6CC6)c(F)c5n4)n3c2)C(F)(F)F)C1` [Example 172, (S)-1-((R)-1-(3-(7-cyclopropyl-8-fluoroquinolin-2-yl)-[1,2,4]triazolo[4,3-a]pyridin-6-yl)-2,2,2-trifluoroethyl)pyrrolidin-3-amine dihydrochloride], for which the negative-log IC50 (pIC50) is 8.65 in test [1], below 7.00 in test [2] and 8.00 in test [3].
In the same order, the values of `CCOc1cc2nc(-c3nnc4ccc([C@H](C)N5CC[C@H](N)C5)cn34)ccc2cc1F` [Example 310, (S)-1-((S)-1-(3-(7-ethoxy-6-fluoroquinolin-2-yl)-[1,2,4]triazolo[4,3-a]pyridin-6-yl)ethyl)pyrrolidin-3-amine trihydrochloride] are 9.34, 6.38 and 8.96.
In the same order, the values of `CC1(N)CCN(C(c2ccc3nnc(-c4ccc5cccc(OCC6CC6)c5n4)n3c2)C(F)(F)F)C1` (stereo not drawn) [Example 27, 1-(1-(3-(8-(cyclopropylmethoxy)quinolin-2-yl)-[1,2,4]triazolo[4,3-a]pyridin-6-yl)-2,2,2-trifluoroethyl)-3-methylpyrrolidin-3-amine dihydrochloride] are 9.10, 6.48 and 7.60.
In the same order, the values of `CC(C)(C)NC(=O)c1ccc2ccc(-c3nnc4ccc([C@@H](N5CC[C@H](N)C5)C(F)(F)F)cn34)nc2c1C1CC1` [Example 83, 2-(6-((R)-1-((S)-3-aminopyrrolidin-1-yl)-2,2,2-trifluoroethyl)-[1,2,4]triazolo[4,3-a]pyridin-3-yl)-N-tert-butyl-8-cyclopropylquinoline-7-carboxamide dihydrochloride] are 8.95, 7.55 and 9.00.
For the compound `CC(C)NC(=O)c1ccc2ccc(-c3nnc4ccc([C@@H](N5CC[C@H](N)C5)C(F)(F)F)cn34)nc2c1` [Example 34, 2-(6-((R)-1-((S)-3-aminopyrrolidin-1-yl)-2,2,2-trifluoroethyl)-[1,2,4]triazolo[4,3-a]pyridin-3-yl)-N-isopropylquinoline-7-carboxamide dihydrochloride], the pIC50 in test [1] was 9.70; in test [2] it was 7.39; in test [3], 9.52.
For the compound `N[C@@H]1CCN([C@H](c2ccc3nnc(-c4ccc5cccc(C6CC6)c5n4)n3c2)C(F)(F)F)C1` [Example 47, (R)-1-((R)-1-(3-(8-cyclopropylquinolin-2-yl)-[1,2,4]triazolo[4,3-a]pyridin-6-yl)-2,2,2-trifluoroethyl)pyrrolidin-3-amine dihydrochloride], the pIC50 is 10.05 in test [1], 7.29 in test [2] and 8.42 in test [3].
As for `Cn1cc(-c2ccc3ccc(-c4nnc5ccc([C@@H](N6CC[C@H](N)C6)C(F)(F)F)cn45)nc3c2F)cn1` [Example 171, (S)-1-((R)-2,2,2-trifluoro-1-(3-(8-fluoro-7-(1-methyl-1H-pyrazol-4-yl)quinolin-2-yl)-[1,2,4]triazolo[4,3-a]pyridin-6-yl)ethyl)pyrrolidin-3-amine tri-hydrochloride], the pIC50 is 9.54 in test [1], below 7.00 in test [2] and 9.30 in test [3].
In the same order, the values of `CNC(=O)c1ccc2ccc(-c3nnc4ccc([C@@H](N5CC[C@H](N)C5)C(F)(F)F)cn34)nc2c1` [Example 42, 2-(6-((R)-1-((S)-3-aminopyrrolidin-1-yl)-2,2,2-trifluoroethyl)-[1,2,4]triazolo[4,3-a]pyridin-3-yl)-N-methylquinoline-7-carboxamide dihydrochloride] are 9.59, 7.31 and 9.30.
In the same order, the values of `CCOc1cc2nc(-c3nnc4ccc([C@@H](N5CCC(N)(CC)C5)C(F)(F)F)cn34)ccc2cc1F` (single isomer, unassigned; diastereomer 2) [Example 253, dihydrochloride] are 9.11, 6.11 and 8.66.
For `COCCOc1ccc2ccc(-c3nnc4ccc([C@@H](N5CC[C@H](N)C5)C(F)(F)F)cn34)nc2c1C` [Example 117, (S)-1-((R)-2,2,2-trifluoro-1-(3-(7-(2-methoxyethoxy)-8-methylquinolin-2-yl)-[1,2,4]triazolo[4,3-a]pyridin-6-yl)ethyl)pyrrolidin-3-amine hydrochloride], the negative logarithm of the IC50 (pIC50) in test [1] was 9.68; in test [2], 6.68; in test [3], 9.40.
In the same order, the values of `Cc1c(C(=O)NC(C)C)ccc2ccc(-c3nnc4ccc([C@@H](N5CC[C@H](N)C5)C(F)(F)F)cn34)nc12` [Example 209, 2-(6-((R)-1-((S)-3-aminopyrrolidin-1-yl)-2,2,2-trifluoroethyl)-[1,2,4]triazolo[4,3-a]pyridin-3-yl)-N-isopropyl-8-methylquinoline-7-carboxamide] are 9.26, 6.75 and 9.22.
In the same order, the values of `COc1cccc2ccc(-c3nnc4ccc([C@@H](N5CC[C@](N)(CF)C5)C(F)(F)F)cn34)nc12` (single isomer, unassigned) [Example 170] are 9.02, below 7.00 and 8.21.
In the case of `C[C@]1(N)CCN([C@@H](c2ccc3nnc(-c4ccc5ccc(C6CC6)cc5n4)n3c2)C(F)(F)F)C1` [Example 223, (S)-1-((S)-1-(3-(7-cyclopropylquinolin-2-yl)-[1,2,4]triazolo[4,3-a]pyridin-6-yl)-2,2,2-trifluoroethyl)-3-methylpyrrolidin-3-amine dihydrochloride], the results for the negative-log IC50 (pIC50) in test [1], in test [2] and in test [3] were 9.54, 7.21 and 9.52, respectively.
`CCOc1ccc2ccc(-c3nnc4ccc([C@H](N5CC[C@](C)(N)C5)C(F)(F)F)cn34)nc2c1` [Example 262, (S)-1-((S)-1-(3-(7-ethoxyquinolin-2-yl)-[1,2,4]triazolo[4,3-a]pyridin-6-yl)-2,2,2-trifluoroethyl)-3-methylpyrrolidin-3-amine dihydrochloride]: the negative-log IC50 (pIC50) in test [1] was 9.66; in test [2], 7.20; in test [3] it was 9.40.
